Reference: patent US6506760B1, “Substituted hydrazinyl heteroaromatic inhibitors of thrombin” (Corvas International, Inc., priority 2000, dated 2003)
Where two headings read alike, the source gives them in different places.

What was measured:
Format in all cases: biochemical
[1] = target: T1, bovine pancreatic trypsin (Bos taurus, UniProt P00760); test: Trypsin chromogenic assay, IC50; settings: 30 min incubation
T1 construct: bovine pancreatic trypsin was obtained from Worthington Biochemical Corp; purchased Worthington Biochemical Corp. TRL3; host or cells: bovine pancreas
T1 sequence (P00760 24-246): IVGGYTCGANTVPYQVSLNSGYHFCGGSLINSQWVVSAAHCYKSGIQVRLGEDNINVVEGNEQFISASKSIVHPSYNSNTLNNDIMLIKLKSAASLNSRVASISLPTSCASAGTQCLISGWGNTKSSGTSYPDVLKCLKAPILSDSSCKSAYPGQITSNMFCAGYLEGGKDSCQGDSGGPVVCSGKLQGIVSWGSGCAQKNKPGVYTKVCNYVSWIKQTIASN
Method: (§1) The ability of compounds of the present invention to act as a selective inhibitor of thrombin activity was assessed by determining the concentration of test-compound which inhibited the activity of this enzyme by 50%, (IC50), and comparing this value to that determined for all or some of the following related serine proteases: recombinant tissue plasminogen activator (rt-PA), plasmin, activated protein C, chymotrypsin, factor Xa and trypsin.
(§2) The buffer used for all assays was HBSA (10 mM HEPES, pH 7.5, 150 mM sodium chloride, 0.1% bovine serum albumin).
(§3) The assay for IC50 determinations was conducted by combining in appropriate wells of a Corning microtiter plate, 50 microliters of HBSA, 50 microliters of the test compound at a specified concentration (covering a broad concentration range) diluted in HBSA (or HBSA alone for V0 (uninhibited velocity) measurement), and 50 microliters of the enzyme diluted in HBSA. Following a 30 minute incubation at ambient temperature, 50 microliters of the substrate at the concentrations specified below were added to the wells, yielding a final total volume of 200 microliters. The initial velocity of chromogenic substrate hydrolysis was measured by the change in absorbance at 405 nm using a Thermo Max® Kinetic Microplate Reader over a 5 minute period in which less than 5% of the added substrate was utilized. The concentration of added inhibitor which caused a 50% decrease in the initial rate of hydrolysis was defined as the IC50 value.
Trypsin catalytic activity was determined using the chromogenic substrate, S-2222 (benzoyl-L-isoleucine-L-glutamic acid-[gamma-methyl ester]-L-arginine-p-nitroanilide), which was obtained from DiaPharma Group. […] Purified (3×-crystallized; TRL3) bovine pancreatic trypsin was obtained from Worthington Biochemical Corp. The enzyme was reconstituted in deionized water and diluted into HBSA prior to assay in which the final concentration was 0.5 nM.

human α-thrombin = human α-thrombin (Homo sapiens, UniProt P00734); test: Thrombin (fIIa) chromogenic assay, IC50
human plasmin = human plasmin (Homo sapiens, UniProt P00747); test: Plasmin chromogenic assay, IC50; settings: 30 min incubation
Method: as §1, §2, §3
Plasmin catalytic activity was determined using the chromogenic substrate, S-2366 [L-pyroglutamyl-L-prolyl-L-arginine-p-nitroaniline hydrochloride], which was obtained from DiaPharma group. The substrate was made up in deionized water followed by dilution in HBSA prior to the assay in which the final concentration was 300 micromolar (about 2.5-times Km). Purified human plasmin was obtained from Enzyme Research Laboratories, Inc. The enzyme was diluted into HBSA prior to assay in which the final concentration was 1.0 nM.

Factor Xa = target: T2, Factor Xa (Homo sapiens, UniProt P00742); test: Factor Xa chromogenic assay, IC50; settings: 30 min incubation; read-out: fxa IC50 (30 min)
T2 construct: purchased Enzyme Research Laboratories, Inc. (South Bend, Ind.)
Method: as §1, §2, §3
Factor Xa catalytic activity was determined using the chromogenic substrate S-2765 (N-benzyloxycarbonyl-D-arginine-L-glycine-L-arginine-p-n itroaniline ), obtained from DiaPharma Group (Franklin, Ohio). All substrates were reconstituted in deionized water prior to use. […] Purified human Factor X was obtained from Enzyme Research Laboratories, Inc. (South Bend, Ind.) and Factor Xa (FXa) was activated and prepared from it as described [Bock, P. E., Craig, P. A., Olson, S. T., and Singh, P. Arch, Biochem. Biophys, 273:375-388 (1989)]. The enzyme was diluted into HBSA prior to assay in which the final concentration was 0.25 nM.

[2] = 0 min incubation of enzyme with inhibitor, read-out: fIIa IC50 (0 min)
[3] = 30 min incubation of enzyme with inhibitor, read-out: fIIa IC50 (30 min)

T2 sequence (P00742 235-488 limits assumed): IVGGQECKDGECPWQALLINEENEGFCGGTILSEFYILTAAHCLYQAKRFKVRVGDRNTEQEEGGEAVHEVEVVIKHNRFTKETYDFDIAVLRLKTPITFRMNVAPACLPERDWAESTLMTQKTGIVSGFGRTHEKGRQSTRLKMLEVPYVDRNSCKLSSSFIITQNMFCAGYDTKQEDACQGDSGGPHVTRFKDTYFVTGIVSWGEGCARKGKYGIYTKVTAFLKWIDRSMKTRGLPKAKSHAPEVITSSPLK
T2 sequence (P00742 41-179 partner limits assumed): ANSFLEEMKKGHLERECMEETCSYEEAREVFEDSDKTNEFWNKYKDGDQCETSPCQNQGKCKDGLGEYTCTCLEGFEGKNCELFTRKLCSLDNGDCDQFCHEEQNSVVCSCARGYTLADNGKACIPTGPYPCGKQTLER
Chain of human plasmin (P00747 581-810 limits assumed): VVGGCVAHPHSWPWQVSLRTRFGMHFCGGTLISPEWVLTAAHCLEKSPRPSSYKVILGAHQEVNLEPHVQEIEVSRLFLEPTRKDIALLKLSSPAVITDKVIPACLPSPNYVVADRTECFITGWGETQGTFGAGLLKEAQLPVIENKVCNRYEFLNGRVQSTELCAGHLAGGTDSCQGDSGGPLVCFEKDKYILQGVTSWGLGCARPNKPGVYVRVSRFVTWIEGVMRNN
Chain of human plasmin (P00747 97-580 partner limits assumed): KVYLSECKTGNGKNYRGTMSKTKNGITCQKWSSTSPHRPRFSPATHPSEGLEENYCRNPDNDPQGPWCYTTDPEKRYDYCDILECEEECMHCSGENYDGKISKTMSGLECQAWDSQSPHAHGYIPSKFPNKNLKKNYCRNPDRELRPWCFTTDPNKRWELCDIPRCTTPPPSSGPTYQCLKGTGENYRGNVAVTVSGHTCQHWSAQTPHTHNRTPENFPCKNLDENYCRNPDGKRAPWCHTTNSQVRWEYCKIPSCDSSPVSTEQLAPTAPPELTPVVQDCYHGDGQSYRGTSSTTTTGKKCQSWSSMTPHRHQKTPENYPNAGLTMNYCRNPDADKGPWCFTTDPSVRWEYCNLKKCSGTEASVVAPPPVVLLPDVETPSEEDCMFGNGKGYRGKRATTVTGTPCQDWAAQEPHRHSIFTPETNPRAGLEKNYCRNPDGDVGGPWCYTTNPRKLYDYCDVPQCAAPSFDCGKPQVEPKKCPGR

Molecule | IC50 [1] [µM] | IC50 (human α-thrombin; [2]) [µM] | IC50 (human α-thrombin; [3]) [µM] | IC50 (human plasmin) [µM] | IC50 (Factor Xa) [µM]
1-[5-(2-Amino-6-methylpyridyl)methylcarboxamidomethyl]-3-[2-(2-chlorobenzenesulfonyl)hydrazino]-6-methylpyrazinone, Hydrotrifluoroacetate [Example 53] | 2.5 to 100 | ≤ 0.1 | ≤ 0.1 | ≥ 100 | 2.5 to 100
1-[5-(2-Amino-6-methylpyridyl)methylcarboxamidomethyl]-3-[2-(4-chlorobenzenesulfonyl)hydrazino]-6-methylpyrazinone, Hydrotrifluoroacetate [Example 55] | ≥ 100 | ≤ 0.1 | ≤ 0.1 | ≥ 100 | ≥ 100
Cc1nc(N)ccc1CNC(=O)Cn1c(C)cnc(NNC(=O)Cc2ccccc2)c1=O [Example 12, 1-[5-(2-Amino-6-methylpyridyl)methylcarboxamidomeyhyl-]6-methyl-3-(2-phenylacetylhydrazino)pyrazinone, Hydrotrifluoroacetate] | ≥ 100 | ≤ 0.1 | ≤ 0.1 | 2.5 to 100 | ≥ 100
Cc1nc(N)ccc1CNC(=O)Cn1c(C)cnc(NNS(=O)(=O)c2ccccc2)c1=O [Example 22, 1-[5-(2-Amino-6-methylpyridyl)methylcarboxamidomethyl]-6-methyl-3-(2-phenylsulfonylhydrazino)pyrazinone, Hydrotrifluoroacetate] | 2.5 to 100 | ≤ 0.1 | ≤ 0.1 | ≥ 100 | ≥ 100
Cc1nc(N)ccc1CNC(=O)Cn1c(C)cnc(NNC(=O)OCc2ccccc2Cl)c1=O [Example 24, 1-[5-(2-Amino-6-methylpyridyl)methylcarboxamidomethyl]-3-[2-(2-chlorobenzyloxycarbonyl)hydrazino]-6-methylpyrazinone, Hydrotrifluoroacetate] | 2.5 to 100 | ≤ 0.1 | ≤ 0.1 | ≥ 100 | ≥ 100
C=CCOC(=O)NNc1ncc(C)n(CC(=O)NCc2ccc(N)nc2C)c1=O [Example 25, 3-(2-Allyloxycarbonylhydrazino)-1-[5-(2-amino-6-methylpyridyl)methylcarboxamidomethyl]-6-methylpyrazinone, Hydrotrifluoroacetate] | ≥ 100 | ≤ 0.1 | ≤ 0.1 | ≥ 100 | ≥ 100
C=CCCOC(=O)NNc1ncc(C)n(CC(=O)NCc2ccc(N)nc2C)c1=O [Example 28, 1-[5-(2-Amino-6-methylpyridyl)methylcarboxamidomethyl]-3-[2-(3-butenyloxycarbonyl)hydrazino]-6-methylpyrazinone, Hydrotrifluoroacetate] | ≥ 100 | ≤ 0.1 | ≤ 0.1 | ≥ 100 | 2.5 to 100
C#CCOC(=O)NNc1ncc(C)n(CC(=O)NCc2ccc(N)nc2C)c1=O [Example 30, 1-[5-(2-Amino-6-methylpyridyl)methylcarboxamidomethyl]-6-methyl-3-(2-propargyloxycarbonylhydrazino)pyrazinone, Hydrotrifluoroacetate] | ≥ 100 | ≤ 0.1 | ≤ 0.1 | ≥ 100 | ≥ 100
Cc1nc(N)ccc1CNC(=O)Cn1c(C)cnc(NNC(=O)OCC(C)(C)C)c1=O [Example 31, 1-[5-(2-Amino-6-methylpyridyl)methylcarboxamidomeyhyl-]6-methyl-3-(2-neopentyloxycarbonylhydrazino)pyrazinone, Hydrotrifluoroacetate] | 2.5 to 100 | ≤ 0.1 | ≤ 0.1 | ≥ 100 | ≥ 100
Cc1nc(N)ccc1CNC(=O)Cn1c(C)cnc(NNC(=O)OCc2ccccc2Cl)c1=O [Example 32, 1-[5-(2-Amino-6-methylpyridyl)methylcarboxamidomethyl]-3-[2-(2-chlorobenzyloxycarbonyl)hydrazino]-6-methylpyrazinone, Hydrotrifluoroacetate] | ≥ 100 | ≤ 0.1 | ≤ 0.1 | 2.5 to 100 | ≥ 100
Cc1nc(N)ccc1CNC(=O)Cn1c(C)cnc(NNC(=O)NCc2ccc(Cl)cc2)c1=O [Example 37, 1-[5-(2-Amino-6-methylpyridyl)methylcarboxamidomethyl]-3-[2-(4-chlorobenzylcarbamyl)hydrazino]-6-methylpyrazinone, Hydrotrifluoroacetate] | ≥ 100 | ≤ 0.1 | ≤ 0.1 | ≥ 100 | ≥ 100
Cc1nc(N)ccc1CNC(=O)Cn1c(C)cnc(NNS(=O)(=O)c2ccccc2C(F)(F)F)c1=O [Example 45, 1-[5-(2-Amino-6-methylpyridyl)methylcarboxamidomethyl]-6-methyl-3-[2-(2-trifluoromethylbenzenesulfonyl)hydrazino]pyrazinone, Hydrotrifluoroacetate] | ≥ 100 | ≤ 0.1 | ≤ 0.1 | ≥ 100 | 2.5 to 100
COc1ccccc1CNC(=O)NNc1ncc(C)n(CC(=O)NCc2ccc(N)nc2C)c1=O [Example 48, 1-[5-(2-Amino-6-methylpyridyl)methylcarboxamidomethyl]-3-[2-(2-methoxybenzylcarbamyl)hydrazino]-6-methylpyrazinone, Hydrotrifluoroacetate] | ≥ 100 | ≤ 0.1 | ≤ 0.1 | ≥ 100 | ≥ 100
Cc1nc(N)ccc1CNC(=O)Cn1c(C)cnc(NNC(=O)NCc2ccc3c(c2)OCO3)c1=O [Example 49, 1-[5-(2-Amino-6-methylpyridyl)methylcarboxamidomethyl]-6-methyl-3-(2-piperonylcarbamylhydrazino)pyrazinone, Hydrotrifluoroacetate] | ≥ 100 | ≤ 0.1 | ≤ 0.1 | ≥ 100 | ≥ 100
Cc1nc(N)ccc1CNC(=O)Cn1c(C)cnc(NNC(=O)NCCC(C)(C)C)c1=O [Example 50, 1-[5-(2-Amino-6-methylpyridyl)methylcarboxamidomethyl]-6-methyl-3-[2-(3,3-dimethylbutylcarbamyl)hydrazino]pyrazinone, Hydrotrifluoroacetate] | 2.5 to 100 | ≤ 0.1 | ≤ 0.1 | ≥ 100 | 2.5 to 100
Cc1nc(N)ccc1CNC(=O)Cn1c(C)cnc(NNS(=O)(=O)c2ccccc2F)c1=O [Example 54, 1-[5-(2-Amino-6-methylpyridyl)methylcarboxamidomethyl]-3-[2-(2-fluorobenzenesulfonyl)hydrazino]-6-methyl pyrazinone, Hydrotrifluoroacetate] | ≥ 100 | ≤ 0.1 | ≤ 0.1 | ≥ 100 | ≥ 100
COc1ccc(S(=O)(=O)NNc2ncc(C)n(CC(=O)NCc3ccc(N)nc3C)c2=O)cc1 [Example 57] | ≥ 100 | ≤ 0.1 | ≤ 0.1 | ≥ 100 | 2.5 to 100
C#CCOC(=O)N(CC)Nc1ncc(C)n(CC(=O)NCc2ccc(N)nc2C)c1=O [Example 58, 1-[5-(2-Amino-6-methylpyridyl)methylcarboxamidomeyhyl-]3-[2-ethyl-2-(propargyloxycarbonyl)hydrazino]-6-methylpyrazinone, Hydrotrifluoroacetate] | ≥ 100 | ≤ 0.1 | ≤ 0.1 | ≥ 100 | ≥ 100
